Reference: PubChem BioAssay (NCI)
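Briefly, cells in 96-well plates were exposed to five compound concentrations for 48 h, and endpoints were estimated by linear interpolation. At the GI50, growth is halved. At the TGI there is no net growth.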

Experiments:
Test in all cases: DTP human tumour cell line panel, 48 h
[1] = test system: OVCAR-3 ovarian
[2] = test system: M14 melanoma
[3] = test system: EKVX NSCLC
[4] = test system: SN12C renal
[5] = test system: UACC-257 melanoma
[6] = test system: K-562 leukemia
[7] = test system: IGROV1 ovarian
[8] = test system: SW-620 colon
[9] = test system: CCRF-CEM leukemia
[10] = test system: SR leukemia

Row | SMILES | TGI [1] | TGI [2] | TGI [3] | TGI [4] | TGI [5] | TGI [6] | TGI [7] | TGI [8] | TGI [9] | TGI [10] | GI50 [1] | GI50 [2] | GI50 [3] | GI50 [5] | GI50 [6] | GI50 [7] | GI50 [8] | GI50 [9] | GI50 [10] | GI50 [4]
1 | CC(=O)OCCOCNC(=S)N/N=C/c1ccc2ccccc2n1 | > 100 µM | > 100 µM | > 100 µM | > 100 µM | > 100 µM | > 100 µM | > 100 µM | > 100 µM | > 100 µM | > 100 µM | – | – | – | – | – | – | – | – | – | –
2 | [N-]=[N+]=Nc1ccc(CCN2CCN(c3cccc(C(F)(F)F)c3)CC2)cc1I | > 100 µM | > 100 µM | > 100 µM | > 100 µM | > 100 µM | > 100 µM | – | > 100 µM | > 100 µM | > 100 µM | – | – | – | – | – | – | – | – | – | –
3 | COc1ccc(Cl)cc1Nc1nc(C(F)(F)F)ccc1C(=O)N/N=C/c1ccc([N+](=O)[O-])cc1 | 3.78 µM | 5.41 µM | 9.27 µM | – | 8.7 µM | 12.6 µM | 6.49 µM | > 100 µM | > 100 µM | 4.95 µM | 1.25 µM | 1600 nM | 2010 nM | 2.92 µM | 2.95 µM | 2560 nM | 2770 nM | 30800 nM | 1.76 µM | –
4 | CC1=CC[C@@H]2C(C)(C)C(=O)CC[C@@]2(C)[C@@H]1COc1ccc2ccc(=O)oc2c1 | 56.9 µM | 32.7 µM | > 100 µM | > 100 µM | 31 µM | 88.7 µM | 55.1 µM | > 100 µM | 70.9 µM | 68.5 µM | 10.1 µM | 12900 nM | 13600 nM | 12.3 µM | 7.02 µM | 16200 nM | 24900 nM | 5480 nM | 13.2 µM | 27.3 µM
5 | COc1cc(-c2nn(-c3ccc(NC(=O)Nc4ccc(Cl)c(Cl)c4)cc3)cc2-c2ccncc2)ccc1Cl | 8.63 µM | 6.87 µM | 15.3 µM | > 100 µM | 23.5 µM | > 100 µM | > 100 µM | 19.4 µM | > 100 µM | > 100 µM | 3.02 µM | 2560 nM | 2610 nM | 3.17 µM | 3.51 µM | 4880 nM | 4300 nM | 3160 nM | 3.77 µM | 3.96 µM
6 | O=S(=O)(Nc1cc(Br)c(O)c2ccccc12)c1ccc(F)cc1 | 6.4 µM | 6.12 µM | 7.52 µM | 4.36 µM | 3.58 µM | 8.28 µM | 5.51 µM | 7.65 µM | 8.29 µM | 34.3 µM | 2.56 µM | 2420 nM | 2640 nM | 1.87 µM | 3.19 µM | 2590 nM | 2450 nM | 760 nM | 4.24 µM | 2.04 µM
7 | Cc1cc(=O)n(-c2ccccc2)c(=O)o1 | > 100 µM | > 100 µM | > 100 µM | > 100 µM | > 100 µM | > 100 µM | > 100 µM | > 100 µM | > 100 µM | > 100 µM | – | – | – | – | – | – | – | – | – | –
8 | CC1=CCC2(C#N)CCC1C2O (configuration not stated) | > 100 µM | > 100 µM | > 100 µM | > 100 µM | > 100 µM | > 100 µM | > 100 µM | – | > 100 µM | > 100 µM | – | – | – | – | – | – | – | – | – | –
9 | CNC(=S)N/N=C1\CC(c2ccccc2)Oc2ccccc21 (configuration not stated) | > 100 µM | > 100 µM | > 100 µM | > 100 µM | – | > 100 µM | > 100 µM | > 100 µM | > 100 µM | > 100 µM | – | – | – | – | – | – | – | – | – | –
10 | C=CCC1C(=O)C(C(=O)OC)N2CCc3c([nH]c4ccccc34)C12 (configuration not stated) | > 100 µM | > 100 µM | > 100 µM | > 100 µM | – | > 100 µM | > 100 µM | > 100 µM | > 100 µM | > 100 µM | – | – | – | – | – | – | – | – | – | –
11 | O=C(COc1ccc(/C=C2\Oc3ccccc3C2=O)cc1)Nc1nccs1 | > 100 µM | – | > 100 µM | > 100 µM | > 100 µM | > 100 µM | – | > 100 µM | 3.27 µM | 61 µM | 36.1 µM | – | 51500 nM | 39.3 µM | 60.1 µM | – | > 100000 nM | 1520 nM | 20.8 µM | 76.9 µM
12 | O=C(/C=C/C12c3ccccc3C(c3ccccc31)C1C(=O)N(c3ccccc3)C(=O)C12)c1ccc(Cl)cc1 (configuration not stated) | – | 6.78 µM | 9.89 µM | > 100 µM | 5.5 µM | > 100 µM | 6.09 µM | > 100 µM | > 100 µM | > 100 µM | – | 2140 nM | 1850 nM | 2.13 µM | 1.55 µM | 2100 nM | 2270 nM | 566 nM | 1.07 µM | 2.34 µM
13 | O=C(CC(=O)c1ccc([N+](=O)[O-])cc1)C(=O)Nc1nccs1 | > 100 µM | > 100 µM | > 100 µM | > 100 µM | – | > 100 µM | > 100 µM | > 100 µM | > 100 µM | > 100 µM | – | – | – | – | – | – | – | – | – | –
